# Values of other authors, collected in patent US6969532B2, “Compounds inhibiting COX-2 and iNOS promoter activities” (priority 2000, dated 2005).
# Tested on: human adenomatous polyposis
# Conditions: randomized clinical trial
compound,measurement,value
Cc1ccc(-c2cc(C(F)(F)F)nn2-c2ccc(S(N)(=O)=O)cc2)cc1 [Celebrex],extent of polyp reduction,about 30%
